The structures appear in SMILES notation.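 Step 1: Grow cells in 96-well plates. Step 2: Expose to compound for 48 hours at 5 concentrations. Step 3: Interpolate endpoints linearly; if unreached, use highest concentration. Here, GI50 denotes the concentration required for 50% inhibition of growth.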 Calls of active or inactive are those of the source. Cut-off read from the data, not from the text of the source: active = GI50 up to about 1.1 µM and inactive = higher.

What all share (experiment): growth of human tumour cells (NCI), 48 h
Test [1] deals with DU-145.
For test [2], the system named is EKVX.
Test [3] deals with K562.
For test [4], the system named is KM12.
For test [5], the system named is MDA-MB-231.
The subject of test [6] is MDA-MB-435.
For test [7], the system named is NCI-H226.
Test [8] deals with NCI-H23.
Test [9] concerns NCI/ADR-RES.
Test [10] deals with SF-295.
Test [11] relates to SK-MEL-5.
The subject of test [12] is SK-OV-3.
In test [13] the test system is SNB-19.
Test [14] deals with SW-620.
The subject of test [15] is T47D.
Test [16] has as its system TK-10.
Test [17] deals with UO-31.
For test [18], the system named is SR.

On to `O=C1NC(=S)N/C1=C\c1cccs1`, for which the GI50 in [1], in test [2], in [3], in [4], in [5] and in test [6] was > 100 µM (inactive) each time. Moreover, the GI50 in test [7], in test [8], in [9], in test [10], in [11] and in test [12] was > 100 µM (inactive) in each case. The GI50 is > 100 µM (inactive) in test [13]; > 100 µM (inactive) in test [14]; 73.1 µM (inactive) in [15]; > 100 µM (inactive) in test [16]; > 100 µM (inactive) in test [17].

On to `O=C(O[C@H](/C=C/c1ccccc1)P1(=O)N(Cc2ccccc2)[C@H]2CCCC[C@@H]2N1Cc1ccccc1)c1ccccc1`, for which the GI50 in test [2] was 4.56 µM (inactive); in test [3], 4.2 µM (inactive); in test [4], 3.41 µM (inactive); in [5], 3.49 µM (inactive); in test [6] it was 3.05 µM (inactive); in test [7], 2.33 µM (inactive). The GI50 was 3.51 µM (inactive) in test [8]; 3.05 µM (inactive) in [9]; 3.74 µM (inactive) in test [10]; 1.87 µM (inactive) in test [11]; 5.85 µM (inactive) in test [12]; 5.31 µM (inactive) in test [13]. Further, the GI50 in test [18] was 3.35 µM (inactive); in test [14] it was 3.72 µM (inactive); in test [15], 0.877 µM (active); in test [16], > 100 µM (inactive); in test [17], 4.61 µM (inactive).

Take `CC(=O)C1(/N=N/c2ccc(S(N)(=O)=O)cc2)CCOC1=O` (stereo unspecified): the GI50 in test [1], in [2], in [4], in test [5], in [6] and in test [7] was > 100 µM (inactive) throughout. For the same compound, the GI50 in [8], in test [9], in test [10], in test [11], in [12] and in test [13] was > 100 µM (inactive) throughout. Besides, the GI50 in test [14], in test [15], in test [16] and in test [17] was > 100 µM (inactive) throughout.

Regarding `COC1/C=C(C)/C=C/C(C)/C=C/C(=O)OC(/C(C)=C/C=C(\C)CNC(=O)[C@H](CO)NC=O)C(C)/C=C/C=C/C(OC)CC/C=C(C)/C=C/C1` (stereo partly specified), the GI50 in test [1] was > 0.312 µM (active); in [2], 0.139 µM (active); in test [3], 0.0192 µM (active); in test [4] it was 0.0195 µM (active); in test [5] it was 0.012 µM (active); in [6], 0.0224 µM (active). Besides, the GI50 in [8] was 0.0497 µM (active); in test [9], 0.407 µM (active); in test [10], 0.0229 µM (active); in [11] it was 0.0231 µM (active); in [12], > 1 µM (active); in test [13], > 1 µM (active). In addition, the GI50 in [14] was 0.0469 µM (active); in test [15], 0.0525 µM (active); in test [16], 0.356 µM (active); in test [17] it was 0.197 µM (active).

As to `CCOC(=O)C1=COC(C)(C)CC1=O`, the GI50 in [1], in [2], in [3], in [4], in test [5] and in [6] was > 100 µM (inactive) each time. Moreover, the GI50 in test [8], in [9], in [10], in test [11], in test [12] and in [13] was > 100 µM (inactive) each time. Besides, the GI50 in test [14], in [15], in test [16] and in test [17] was > 100 µM (inactive) in each case.

In the case of `NNC(=S)N/N=C(\C(=O)Nc1cccc(O)c1)C1C(=O)NC(=S)NC1=O`, the GI50 in test [2], in [3], in test [4], in test [5], in test [6] and in test [7] was > 100 µM (inactive) in each case. Also, the GI50 in test [9], in test [10], in test [11], in [12], in test [13] and in [18] was > 100 µM (inactive) in each case. The GI50 in [14], in test [15], in [16] and in test [17] was > 100 µM (inactive) throughout.

Turning to `C/C(=N\Nc1nc2ccccc2s1)c1ncccn1`, the GI50 in [1] is 0.258 µM (active); in [2], < 0.0111 µM (active); in [3], < 0.0501 µM (active); in [4] it was 0.128 µM (active); in test [5] it was < 0.0179 µM (active); in test [6], 0.363 µM (active). The GI50 was < 0.0185 µM (active) in test [7]; 0.0614 µM (active) in [8]; 0.0172 µM (active) in [9]; 0.11 µM (active) in [10]; 0.03 µM (active) in test [11]; 0.103 µM (active) in test [12]. Besides, the GI50 is 0.316 µM (active) in test [13], < 0.0154 µM (active) in test [14], < 0.01 µM (active) in test [15] and 0.022 µM (active) in [17].

With `CN1N=C(c2ccncc2)OC1c1ccc(Cl)cc1Cl` (stereo unspecified), the GI50 was > 100 µM (inactive) in test [1]; 41.7 µM (inactive) in test [2]; 50.5 µM (inactive) in test [3]; > 100 µM (inactive) in test [4]; 87.9 µM (inactive) in test [5]; 63.7 µM (inactive) in [6]. In addition, the GI50 in test [7] was 29.2 µM (inactive); in test [8], > 100 µM (inactive); in [9], 71.8 µM (inactive); in test [10], 66.2 µM (inactive); in [11], 65.6 µM (inactive); in [12], 93.3 µM (inactive). Besides, the GI50 is > 100 µM (inactive) in test [13]; > 100 µM (inactive) in test [14]; 60.3 µM (inactive) in test [15]; > 100 µM (inactive) in test [16]; 93.5 µM (inactive) in [17].

On to `Nc1ccc(-c2nn3c(COc4ccc(Cl)cc4)nnc3s2)cc1`, for which the GI50 in [1] was > 100 µM (inactive); in test [2], 86.9 µM (inactive); in [3] it was > 100 µM (inactive); in test [5] it was 87.3 µM (inactive); in [6] it was 62.2 µM (inactive); in [8], > 100 µM (inactive). Further, the GI50 in test [9] was > 100 µM (inactive); in test [10], 56.9 µM (inactive); in [11] it was > 100 µM (inactive); in test [12], > 100 µM (inactive); in test [13], 88.1 µM (inactive); in test [14], > 100 µM (inactive). Further, the GI50 is > 100 µM (inactive) in test [15], > 100 µM (inactive) in test [16] and 84.9 µM (inactive) in [17].

These data come from ChEMBL document CHEMBL1201862, “PubChem BioAssay data set” (2004).
